The target of experiment [1] is T1, human ACC1 (Homo sapiens, UniProt Q13085).
T1 construct: His tag (from vector pFAST-BacHTc; protein captured on Ni-NTA) (N); made in house; host or cells: SF-9 insect cells, recombinant baculovirus BAC-ACC1
Put plainly: Measurement of ACC1 inhibitory activity (Malonyl-CoA production, RapidFire-mass spectrometry). The experiment is classed as biochemical. Conditions: 10 μM of the test compound; recombinant human ACC1; read-out: ACC1 inhibitory rate (%) at 10 μM. As to the method:
(1) Cloning of Human ACC1 Gene and Preparation of Recombinant Baculovirus
Human ACC1 gene was cloned by PCR using a human liver cDNA library (Clontech) as a template and Primer 1 and Primer 2 shown below. Primer 1 and Primer 2 were prepared by adding SalI, NotI restriction enzyme recognition sequences based on the information of the base sequence of human ACC1 gene (Genbank Accession U19822).
PCR was performed using Pyrobest DNA polymerase (TAKARA BIO INC.). The obtained PCR product was cloned to pT7 Blue vector (Novagen) and after confirmation of the base sequence, digested with restriction enzymes SalI and XbaI. The obtained DNA fragment was inserted into pFAST-BacHTc (Invitrogen) digested with restriction enzymes SalI and XbaI to give expression plasmid ACC1/pFAST-BacHTc.
Using the expression plasmid ACC1/pFAST-BacHTc and BAC-TO-BAC Baculovirus Expression System (Invitrogen), virus stock BAC-ACC1 of recombinant Baculovirus was prepared.
(2) Preparation of ACC1 Protein
SF-9 cells (Invitrogen) were inoculated to a medium (10 L) for insect cells (Sf-900IISFM medium (Invitrogen) containing 5% fetal bovine serum (Trace), 50 mg/L Gentamicin (Wako Pure Chemical Industries, Ltd.), 0.1% Pluronic F-68 (Invitrogen)) at 1.0×10^6 cells/mL, and cultured with shaking in Wave Bioreactor (GE Healthcare) at 27° C., 20 rpm, rocking angle 10°, oxygen concentration 30%.
On day 2 of the culture, recombinant Baculovirus BAC-ACC1 was added, and the cells were cultured for 3 days. The culture medium was centrifuged at 4000×g for 10 min to give virus-infected cells. The cells were washed with phosphate buffered saline (Invitrogen) and centrifuged under the same conditions. The obtained cells were cryopreserved at −80° C.
The cryopreserved cells were thawed in ice and suspended in 800 mL of 25 mM HEPES buffer (pH 7.5) containing 10% Glycerol, 0.3 M NaCl, 1 mM EDTA, 25 mM Sodium β-Glycerophosphate and 1 mM Sodium Orthovanadate, and supplemented with Complete Protease Inhibitor (Roche). The obtained suspension was homogenized two times in a polytron homogenizer (Kinematica) at 20,000 rpm for 20 sec. The obtained cell disruption solution was clarified by centrifugation at 186,000×g for 60 min and the supernatant was passed through Ni-NTA Superflow Cartridges (5 mL) (QUIAGEN). Furthermore, it was washed with 25 mM HEPES buffer (pH 7.5) containing 20 mM Imidazole, 0.3 M NaCl, and eluted with 25 mM HEPES buffer (pH 7.5) containing 250 mM Imidazol, 0.3 M NaCl. The eluate was concentrated by Amicon Ultra-15 (Nihon Millipore K.K.) having a fraction molecular weight of 50K. The obtained concentrate was subjected to gel filtration with 50 mM HEPES buffer (pH 7.5) containing 10 mM MgCl2, 2 mM dithiothreitol, 10 mM tripotassium citrate, 0.3 M NaCl by using HiLoad 26/60 Superdex200 prep grade gel filtration column (GE Healthcare) to give ACC1. The obtained ACC1 was cryopreserved at −80° C.
(3) Measurement of ACC1 Inhibitory Activity
ACC1 obtained in the above-mentioned (2) was diluted with an enzyme reaction buffer (50 mM HEPES (pH 7.5), 10 mM MgCl2, 10 mM Tripottasium Citrate, 2 mM Dithiothreitol, 0.001% Fatty acid free BSA) to a concentration of 0.2 μg/ml, and the mixture was added to each well of a 384 well assay plate by 10 μl. A test compound dissolved in dimethyl sulfoxide (DMSO) was diluted with an enzyme reaction buffer and the resulting solution (5 μl) was added to each well. The mixture was incubated at room temperature for 60 min. Then, a substrate solution (50 mM KHCO3, 200 μM ATP, 200 μM Acetyl-CoA, 5 μl) was added to each well, and the mixture was reacted at room temperature for 30 min. The reaction was quenched by adding a reaction quenching liquid (1.3% formic acid, 0.2 μM Malonyl-^13C3-CoA) by 60 μL each to the obtained reaction mixtures (test compound addition group).
In addition, a reaction was performed in the same manner as above and without adding the test compound (test compound non-addition group). […]

In experiment [2] the test system is HCT116 cells. Put plainly: Growth inhibitory activity on HCT116 cell (CellTiter-Glo). The class given is cell-based. The following applies: Homo sapiens, HCT-116, 72 h, table head: 10 μM (text b2498: 1 μM), 3 days incubation, read-out: HCT116 cell proliferation inhibitory rate (%) at 10 μM. On the procedure: The growth inhibitory activity of the compound on HCT116 cell was evaluated by the following method.
HCT116 cells were seeded in a 384 well blackplate at 900 cells/30 μL/well, and maintained in an RPMI medium (Wako)) containing an assay medium (2% fetal bovine serum, 50 Unit/mL penicillin, 50 μg/mL streptomycin (Invitrogen). The next day, a test compound dissolved in dimethyl sulfoxide (DMSO) was diluted with the assay medium, and the obtained compound solution was added by 10 μL to each well of a plate containing HCT116 cells and incubated at 37° C., 5% CO2 (test compound addition group).
A similar reaction was performed without adding a test compound (test compound non-addition group).
Furthermore, a similar reaction was performed under the conditions without adding HCT116 cell and a test compound (control group).
After 3 days, 20 μL of a CellTiter-Glo reagent (Promega KK) was added to the well, and the mixture was stirred for 10 min. Thereafter, the luminescence value of each well was measured by the EnVision™ multilabel counter (Perkin Elmer Inc.).
The HCT116 cell proliferation inhibitory rate (%) of the test compound was determined by the following calculation formula. (1−(luminescence of test compound addition group−luminescence of control group)÷(luminescence of test compound nonaddition group−luminescence of control group))×100
For orientation: ATP-based viability assays read luminescence as a measure of living cells.

`CC(NC(=O)N(C)C)c1ccc2nc(-c3ccc(Oc4cccc(OCC5CC5)c4)nc3)oc2c1` (stereo not drawn) [Example 101, 3-(1-(2-(6-(3-(cyclopropylmethoxy)phenoxy)pyridin-3-yl)-1,3-benzoxazol-6-yl)ethyl)-1,1-dimethylurea]: the inhibition at 10 µM was determined as 96% in experiment [1] and 30% in experiment [2].
Taken in the same sequence, the figures for `CCCn1cc(Oc2ccc(-c3nc4ccc(C(C)NC(C)=O)cc4o3)cn2)ccc1=O` (stereo not drawn) [Example 102, N-(1-(2-(6-((6-oxo-1-propyl-1,6-dihydropyridin-3-yl)oxy)pyridin-3-yl)-1,3-benzoxazol-6-yl)ethyl)acetamide] were 94% and 30%.
Taken in the same sequence, the figures for `CC(=O)NC(C)c1cc2cc(-c3cnc(Oc4cccc(OCC5CC5)c4)cn3)ccc2o1` (stereo not drawn) [Example 103, N-(1-(5-(5-(3-(cyclopropylmethoxy)phenoxy)pyrazin-2-yl)-1-benzofuran-2-yl)ethyl)acetamide] were 100% and 29%.
The corresponding values for `CC(=O)NC(C)c1ccc2nc(-c3ccc(Oc4cccc(OCC5CC5)c4)cc3)oc2n1` (stereo not drawn) [Example 104, N-(1-(2-(4-(3-(cyclopropylmethoxy)phenoxy)phenyl)[1,3]oxazolo[5,4-b]pyridin-5-yl)ethyl)acetamide] are 98% and 30%.
`CCCCn1cc(Oc2ccc(-c3nc4ccc(C(C)NC(C)=O)cc4o3)cn2)ccc1=O` (stereo not drawn) [Example 105, N-(1-(2-(6-((1-butyl-6-oxo-1,6-dihydropyridin-3-yl)oxy)pyridin-3-yl)-1,3-benzoxazol-6-yl)ethyl)acetamide]: the inhibition at 10 µM was 96% in experiment [1] and 46% in experiment [2].
The corresponding values for `CC(NC(N)=O)c1ccc2nc(-c3ccc(Oc4cncc(OCC5CC5)c4)nc3)oc2c1` (stereo not drawn) [Example 106, 1-(1-(2-(6-((5-(cyclopropylmethoxy)pyridin-3-yl)oxy)pyridin-3-yl)-1,3-benzoxazol-6-yl)ethyl)urea] are 103% and 33%.
As to `CC(NC(N)=O)c1ccc2nc(-c3ccc(Oc4cccc(OCC(C)(F)F)c4)nc3)oc2c1` (stereo not drawn) [Example 107, 1-(1-(2-(6-(3-(2,2-difluoropropoxy)phenoxy)pyridin-3-yl)-1,3-benzoxazol-6-yl)ethyl)urea], the inhibition at 10 µM in experiment [1] is 97%; in experiment [2], 32%.
The corresponding values for `CC(NC(N)=O)c1ccc2nc(-c3ccc(Oc4cccc(OCC5CC5)c4)nc3)oc2c1F` (stereo not drawn) [Example 108, 1-(1-(2-(6-(3-(cyclopropylmethoxy)phenoxy)pyridin-3-yl)-7-fluoro-1,3-benzoxazol-6-yl)ethyl)urea] are 100% and 36%.
Regarding `CC(NC(N)=O)c1ccc2nc(-c3cnc(Oc4cccc(OCC5CC5)c4)cn3)oc2c1` (stereo not drawn) [Example 109, 1-(1-(2-(5-(3-(cyclopropylmethoxy)phenoxy)pyrazin-2-yl)-1,3-benzoxazol-6-yl)ethyl)urea], the figures for the inhibition at 10 µM in experiment [1] and in experiment [2] were 97% and 27%, respectively.

The values above are taken from US10301292B2, “Bicyclic compound” (Takeda Pharmaceutical Company Limited, priority 2014, dated 2019).
